Laboratory results as given in patent US8546451B2 (priority 2005, dated 2013).

Key:
[1] = test system: morphine dependent rat model; test: Hot flashes in morphine dependent rat model (tail skin temperature); assay type: in vivo; conditions: morphine withdrawal model
Protocol: FIG. 13 depicts effect of Compound IV on attenuation of hot flashes in morphine withdrawal model with 5 mg/kg, 10 mg/kg, 15 mg/kg and 30 mg/kg dosages. N=7 animals per group. 17β-E2 was used at 5 mg/kg in 100% DMSO. (See Example 14.)
In addition to the similarities to the human condition, this experimental animal model has a short turn around time which makes it a useful high throughput screening tool for identifying compounds that can alleviate vasomotor symptoms using the tail skin temperature (TST). TST probes TA-40 (Data Sciences International, MN) were taped to the base of the tails and baseline temperatures were obtained for 15 minutes. After 15 minutes the animals were treated with naloxone (1 mg/kg, SQ) to reverse the effects of the morphine. Tail skin temperature (TST) was measured for one hour post-naloxone treatment with a sampling frequency of 5 secs throughout the course of the experiment. Following the data acquisition, the moving average of the temperature recorded every 60 seconds for each animal was calculated and further analyzed. Baseline temperature was computed as the average temperature acquired over the 15 minutes preceding naloxone administration. The area under the curve (AUC) was calculated by subtracting all the values post-naloxone administration from the baseline using a linear trapezoid method.

[2] = biological target: progesterone receptor (PR) (Rattus norvegicus (Rat), UniProt Q63449); test: Cross-reactivity transcriptional activation assay, PR; assay type: cell-based; conditions: agonist and antagonist modes
Sequence of progesterone receptor (PR) (Q63449 whole entry, canonical isoform): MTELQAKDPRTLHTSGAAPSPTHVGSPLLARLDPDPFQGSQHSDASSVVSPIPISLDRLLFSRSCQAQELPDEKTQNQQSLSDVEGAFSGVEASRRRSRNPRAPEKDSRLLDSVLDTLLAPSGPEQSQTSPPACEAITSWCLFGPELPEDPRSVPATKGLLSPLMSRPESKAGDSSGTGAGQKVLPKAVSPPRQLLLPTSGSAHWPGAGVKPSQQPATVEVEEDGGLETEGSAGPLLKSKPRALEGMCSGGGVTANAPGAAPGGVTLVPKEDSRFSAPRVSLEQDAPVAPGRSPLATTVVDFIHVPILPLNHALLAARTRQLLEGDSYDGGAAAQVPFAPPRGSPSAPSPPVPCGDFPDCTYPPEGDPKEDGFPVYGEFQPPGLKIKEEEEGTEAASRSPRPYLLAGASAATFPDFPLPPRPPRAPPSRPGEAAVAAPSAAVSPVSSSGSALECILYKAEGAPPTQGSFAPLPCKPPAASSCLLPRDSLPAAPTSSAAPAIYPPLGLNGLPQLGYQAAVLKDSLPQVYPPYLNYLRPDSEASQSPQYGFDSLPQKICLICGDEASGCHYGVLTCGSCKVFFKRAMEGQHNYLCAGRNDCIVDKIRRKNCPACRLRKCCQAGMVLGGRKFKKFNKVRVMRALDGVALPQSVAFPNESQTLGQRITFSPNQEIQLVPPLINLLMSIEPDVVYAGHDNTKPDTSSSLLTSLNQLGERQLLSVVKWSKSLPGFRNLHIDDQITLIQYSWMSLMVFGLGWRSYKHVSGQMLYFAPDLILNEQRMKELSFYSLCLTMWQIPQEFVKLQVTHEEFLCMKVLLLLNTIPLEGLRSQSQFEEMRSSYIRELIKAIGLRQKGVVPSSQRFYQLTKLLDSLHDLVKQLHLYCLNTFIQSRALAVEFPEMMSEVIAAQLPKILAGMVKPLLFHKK
Description: (§1) Compound IV was screened for cross-reactivity against rat isoforms of glucocorticoid receptor (GR), mineralocorticoids receptor (MR), progesterone receptor (PR), androgen receptor (AR) and human isoforms of farnesoid X receptor (FXR), liver X receptor (LXR), peroxisome proliferator-activated receptors (PPAR-α and PPAR-γ), and retinoid X receptor (RXR-α) in both agonist and antagonist modes in transcriptional activation assays.

[3] = test system: circulating androgen (primarily testosterone and dihydrotestosterone); test: Suppression and recovery of androgen levels in intact male monkeys; assay type: in vivo, Cynomolgus monkeys; set-up: circulating androgen levels: unit not given here
Protocol: The effect of Compound IV on suppression and recovery of testosterone levels in intact male monkeys was evaluated in conjunction with an oral pharmacokinetic study. Three treatment naïve male Cynomolgus monkeys (2 to 3 years old) were administered Compound IV at 30 mg/kg daily by oral gavage for 7 consecutive days. Blood samples were collected and divided into serum and plasma for testosterone and Compound IV quantitative measurements, respectively.

[4] = test system: estrogen related receptor (ERR-α, ERR-β and ERR-γ); test: DES versus Compound IV, ERR transactivation (FIG. 12C); assay type: cell-based
rat ER-β = rat ER-β (Rattus norvegicus (Rat), UniProt Q62986); test: ER-β transactivation assay (ERE-LUC) in HEK-293 cells; assay type: cell-based
Sequence of rat ER-β (Q62986 whole entry): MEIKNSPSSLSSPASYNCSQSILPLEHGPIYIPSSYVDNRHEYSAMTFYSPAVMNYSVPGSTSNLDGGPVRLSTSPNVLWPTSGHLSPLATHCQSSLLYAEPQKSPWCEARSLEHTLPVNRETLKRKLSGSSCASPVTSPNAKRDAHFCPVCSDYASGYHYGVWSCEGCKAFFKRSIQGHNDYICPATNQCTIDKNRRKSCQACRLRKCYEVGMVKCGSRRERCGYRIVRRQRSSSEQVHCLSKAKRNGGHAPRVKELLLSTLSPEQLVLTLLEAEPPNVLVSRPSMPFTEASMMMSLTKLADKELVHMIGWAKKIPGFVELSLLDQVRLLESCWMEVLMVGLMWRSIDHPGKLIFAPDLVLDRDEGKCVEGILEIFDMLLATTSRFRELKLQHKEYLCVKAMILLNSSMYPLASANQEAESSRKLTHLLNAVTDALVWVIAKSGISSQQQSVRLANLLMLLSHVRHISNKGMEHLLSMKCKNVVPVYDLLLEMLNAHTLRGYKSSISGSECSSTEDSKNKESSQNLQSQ
Protocol: Transactivation assays in agonist and antagonist modes were performed to identify whether the compound is an agonist, antagonist or a partial.
Sequencing was performed to determine the absence of any mutations. HEK-293 cells were plated at 100,000 cells per well of a 24 well plate in Dulbecco's Minimal Essential Media (DMEM) +5% charcoal-stripped fetal bovine serum (csFBS). […] Luciferase assays were performed 48 hrs after transfection.

[5] = biological target: glucocorticoid receptor (GR) (Rattus norvegicus (Rat), UniProt P06536); test: DES versus Compound IV, GR crossreaction (FIG. 12A); assay type: cell-based
Sequence of glucocorticoid receptor (GR) (P06536 whole entry): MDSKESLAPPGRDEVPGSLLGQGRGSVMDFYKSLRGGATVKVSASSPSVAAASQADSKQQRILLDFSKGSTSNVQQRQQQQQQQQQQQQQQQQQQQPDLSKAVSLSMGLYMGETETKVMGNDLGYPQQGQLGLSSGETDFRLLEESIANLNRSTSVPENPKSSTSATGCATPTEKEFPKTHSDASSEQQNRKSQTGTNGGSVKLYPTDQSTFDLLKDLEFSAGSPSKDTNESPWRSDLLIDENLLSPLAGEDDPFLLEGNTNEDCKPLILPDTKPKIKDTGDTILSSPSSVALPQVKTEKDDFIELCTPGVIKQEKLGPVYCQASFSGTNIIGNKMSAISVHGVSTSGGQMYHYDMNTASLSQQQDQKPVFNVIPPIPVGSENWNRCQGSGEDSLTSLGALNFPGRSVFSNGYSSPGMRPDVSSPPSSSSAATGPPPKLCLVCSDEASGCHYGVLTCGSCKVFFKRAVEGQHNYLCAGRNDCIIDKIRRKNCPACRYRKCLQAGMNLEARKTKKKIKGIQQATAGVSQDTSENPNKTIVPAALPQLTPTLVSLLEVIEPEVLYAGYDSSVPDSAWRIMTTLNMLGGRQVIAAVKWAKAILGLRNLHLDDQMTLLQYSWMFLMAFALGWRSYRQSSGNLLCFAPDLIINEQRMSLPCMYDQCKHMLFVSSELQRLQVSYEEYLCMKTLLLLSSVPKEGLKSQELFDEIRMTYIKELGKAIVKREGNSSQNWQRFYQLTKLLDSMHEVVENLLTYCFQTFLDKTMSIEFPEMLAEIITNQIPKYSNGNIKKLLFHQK

intact and ORX rats = test: Prostate size, Compound IV versus DES in rats; assay type: in vivo
[6] = biological target: retinoid X receptor (RXR-α) (Homo sapiens (Human), UniProt P19793); test: Cross-reactivity transcriptional activation assay, RXR-α; assay type: cell-based; conditions: agonist and antagonist modes
Sequence of retinoid X receptor (RXR-α) (P19793 whole entry): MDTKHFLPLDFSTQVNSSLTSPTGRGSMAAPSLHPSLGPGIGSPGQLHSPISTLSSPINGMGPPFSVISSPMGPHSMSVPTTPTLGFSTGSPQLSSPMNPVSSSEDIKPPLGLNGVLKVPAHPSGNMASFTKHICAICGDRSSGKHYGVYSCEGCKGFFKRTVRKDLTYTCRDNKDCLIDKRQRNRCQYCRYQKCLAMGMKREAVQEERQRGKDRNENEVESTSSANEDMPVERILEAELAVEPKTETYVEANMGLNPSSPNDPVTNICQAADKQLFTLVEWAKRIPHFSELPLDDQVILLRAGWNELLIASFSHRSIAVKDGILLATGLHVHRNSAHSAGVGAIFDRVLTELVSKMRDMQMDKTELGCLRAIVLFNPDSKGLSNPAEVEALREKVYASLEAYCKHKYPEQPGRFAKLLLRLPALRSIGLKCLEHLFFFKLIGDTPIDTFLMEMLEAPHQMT
Description: as §1

[7] = biological target: ER-α ligand binding domain (LBD) (Homo sapiens (Human), UniProt P03372); test: ER-α competitive radioligand binding assay with [3H]E2; conditions: read-out: ER-α Ki
Sequence of ER-α ligand binding domain (LBD) (P03372 whole entry, looked up, species assumed, the tested form may be a part): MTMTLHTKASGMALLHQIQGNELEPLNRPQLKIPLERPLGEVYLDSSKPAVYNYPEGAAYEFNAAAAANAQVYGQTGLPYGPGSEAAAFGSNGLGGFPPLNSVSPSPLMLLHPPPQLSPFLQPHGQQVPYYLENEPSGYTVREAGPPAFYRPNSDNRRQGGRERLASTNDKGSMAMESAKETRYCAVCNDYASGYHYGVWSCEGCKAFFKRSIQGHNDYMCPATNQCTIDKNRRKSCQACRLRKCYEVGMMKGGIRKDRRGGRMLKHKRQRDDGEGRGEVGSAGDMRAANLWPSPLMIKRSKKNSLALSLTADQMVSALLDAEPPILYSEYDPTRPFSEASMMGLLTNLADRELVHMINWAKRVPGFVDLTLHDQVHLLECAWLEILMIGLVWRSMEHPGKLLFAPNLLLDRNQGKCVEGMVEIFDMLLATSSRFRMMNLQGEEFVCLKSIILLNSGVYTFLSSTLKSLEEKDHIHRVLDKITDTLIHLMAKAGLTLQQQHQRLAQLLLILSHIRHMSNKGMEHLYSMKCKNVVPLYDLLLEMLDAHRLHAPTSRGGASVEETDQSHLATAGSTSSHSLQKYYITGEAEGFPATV
Protocol: Following incubation, plates were harvested with GF/B filters on the Unifilter-96 Harvester (PerkinElmer) and washed three times with ice-cold buffer B (50 mM Tris, pH 7.2). The filter plates were dried at room temperature, then 35 μl Microscint-O cocktail was added to each well and the filter plates were sealed with TopSeal-A. Radioactivity was counted in a TopCount® NXT Microplate Scintillation Counter using the settings for ^3H in Microscint cocktail (PerkinElmer).
E2 (determined by incubating with 10^−6 M unlabeled E2) and expressing it as a percentage of the specific binding in the absence of test compound.

O=C(c1ccc(O)c(F)c1)N(c1ccc(O)cc1)c1ccc(F)cc1 [Compound IV, 3-fluoro-N-(4-fluorophenyl)-4-hydroxy-N-(4-hydroxyphenyl)benzamide]
dose with the best results [1]: 10 mg
effect on hot flushes ([1]; 5, 10, 15 and 30 mg/kg (FIG. 13)): attenuated hot flushes
agonist or antagonist activity [2]: did not display any agonist or antagonist activity
decrease of circulating androgen levels compared to baseline ([3]; 30 mg/kg daily oral gavage for 7 days): up to 47%
circulating androgen levels ([3]; Day 2, 30 mg/kg daily oral gavage, mean±SEM): 997±104
circulating androgen levels ([3]; Day 6, 30 mg/kg daily oral gavage, mean±SEM): 852±136
circulating androgen levels ([3]; after 18-day drug-free recovery period): 1757.7±369.5
effect on ERR transactivation [4]: failed to crossreact
ERβ activity in transient transfection assays (rat ER-β): agonist
antagonist effects on estradiol-stimulated transcriptional activation (rat ER-β; estradiol 1 nM, concentrations up to 10 μM): no antagonist effects were observed
crossreaction with GR [5]: did not
prostate size of ORX rats (intact and ORX rats; ORX rats (FIG. 11B)): moderate increase
reduction of prostate size (intact and ORX rats; rats (FIG. 11A), compared with DES): as effective as DES
agonist or antagonist activity [6]: did not display any agonist or antagonist activity
Ki [7]: 21.7 ± 1.7 nM
